Here are results for 3 compounds from patent publication US20210238173A1, “MITOGEN-ACTIVATED PROTEIN KINASE KINASE 7 INHIBITORS” (Yeda Research and Development Co. Ltd., priority 2018, published 2021).

In general, IC50 refers to the concentration that inhibits the measured activity by half. As a reminder, the EC50 is the concentration needed to bring the measured effect to its halfway point. A word on the half-life: it is the time in which the quantity being followed falls by half. In general, inhibition refers to the change of the read-out against control, counted positive when it falls.

Read-outs that look alike come from different tables or passages of the source. Bounds are passed on as bounds.

Data set [1] concerns the target T1, MKK7 (Homo sapiens, UniProt O14733).
T1 construct: purchased Nanosyn (contract assay)
T1 sequence (O14733 1-419): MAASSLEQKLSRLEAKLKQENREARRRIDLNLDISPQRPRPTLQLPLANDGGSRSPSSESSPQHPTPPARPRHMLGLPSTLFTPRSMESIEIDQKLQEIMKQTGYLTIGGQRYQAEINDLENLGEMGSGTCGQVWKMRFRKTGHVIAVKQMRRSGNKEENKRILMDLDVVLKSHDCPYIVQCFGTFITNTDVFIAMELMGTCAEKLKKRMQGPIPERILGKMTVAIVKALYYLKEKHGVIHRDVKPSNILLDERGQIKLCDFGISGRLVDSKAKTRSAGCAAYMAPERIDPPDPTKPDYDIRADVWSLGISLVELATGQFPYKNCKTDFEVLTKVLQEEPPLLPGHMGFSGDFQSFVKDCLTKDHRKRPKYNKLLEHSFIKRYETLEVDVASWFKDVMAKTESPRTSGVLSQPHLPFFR
Kind of data set: In vitro kinase activity assay for MKK7 (Nanosyn). It is filed as biochemical.

The subject of data set [2] is pJNK in 3T3 WT cells. The data set can be described thus: In-cell western (ICW) pJNK inhibition in 3T3 WT. The following applies: 3T3 WT, sorbitol stimulation. It is filed as cell-based. The procedure:
HEK293, Beas2B and 3T3 cells were plated 24 hours before procedure on 384 well clear bottom black flat plates (Corning) pre-coated with Fibronectin (Sigma) diluted in PBS to a concentration of 5 μg/ml 45 minutes prior to cells introduction. Cells were plated using Multidrop™ Combi reagent dispenser (Thermo Fisher Scientific). Compound, reagents and antibody dispensing as well as washes were performed with a CyBio liquid handler (Analytik). Cells were pre-incubated with a small molecule or up to 1% DMSO for 2 h before fixation. HEK293, 3T3 or Beas2B cells were treated with 0.6M/0.2M/0.2M D-Sorbitol/PBS (Sigma) for 20/40/40 min. respectively, before fixation. Media was removed and wells were immediately fixed with 150 μl per well of 3.7% formaldehyde/PBS fixing solution for 20 min. Formaldehyde was then aspired and cells were permeabilized with 150 μl of 0.5% Triton x-100/PBS solution for 10 min. After aspiration cells were washed with ice-cold methanol and stored at −20° C., for 10 min. Methanol was aspired and cells were blocked with 150 μl blocking buffer (LICOR) for 90 min. Primary antibody Phospho-SAPK/JNK T183/Y185 (CST; 9251S) was diluted 1:1000 in blocking buffer and was applied 50 μl per well, except control wells to which only blocking buffer was applied, O.N. (16 h) at 4° C. with mild shaking. Primary antibody was aspired, wells were washed with 150 μl 0.1% Tween20/PBS (Sigma) washing solution three times for 7 min. IRDye® 800CW Goat anti-Rabbit IgG Secondary antibody (LICOR) was then diluted 1:1200 in blocking buffer with 50 μl applied per well on control wells only (no CellTag control), then CellTag700 (1:2000) was added to the solution and 50 μl were added to all experiment wells, for 1 h at room temperature. Wells were aspired and washed again with 150 μl 0.1% Tween20/PBS (Sigma) washing solution three times for 7 min. plate was dried and scanned with Odyssey CLx imaging system at 700 nm and 800 nm (Licor). Wells signals were analyzed with Odyssey software. The signal was normalized by the CellTag700 signal.
To rapidly assess the cellular activity (EC50) with full dose response curves of the MKK7 covalent inhibitors, according to some embodiments of the present invention, an in-cell western assay was adapted to a 384 well plate format over traditional western blot, and monitored phospho-JNK (pJNK) levels in response to osmotic shock. We first characterized the dynamics of pJNK in response to sorbitol. Sufficient dynamic range for pJNK is achieved at 20 minutes in HEK293 cells and at 40 minutes in 3T3 and Beas2B cells. The compound's activity was assessed by pre-treating cells with either compound or DMSO for 2 hours, followed by Sorbitol stimulation. The response of pJNK, and its substrates, pc-Jun and pATF2, was measured, as well as pP38, which is a substrate of MKK4 but not MKK7, and pERK in HEK293 cells, and the results are presented in Table 5 below.
Wildtype 3T3 cells, 3T3 MKK7 double knock-out (MKK7^−/−) cells and MKK4/7 double knockouts (MKK4/7^−/−) were used to validate on target activity of the MKK7 covalent inhibitors presented herein.

The nature of data set [3]: Metabolic stability in dog liver microsomes. It is filed as in vitro ADME. The following applies: for half-life: dog, liver microsomes. The text has this:
A reference compound, REF1250, was used in this study: […]
For orientation: Liver microsomes are vesicles of endoplasmic reticulum, rich in cytochrome P450 enzymes.

Data set [4] concerns the target EPHB1 (Homo sapiens, UniProt P54762). Kind of data set: Kinome selectivity screen EPHB1. The settings on record: 1 μM compound. The format is biochemical. The procedure: (§1) Kinome Selectivity Screen:
(§2) Kinase selectivity was assessed using the Life Technologies SelectScreen Kinase Profiling Service in a custom panel of 76 kinases selected to provide broad representative coverage of all kinase families. Kinase activity assays employed either the Z′-LYTE or Adapta assay technologies with ATP concentrations at or near the KM, ATP for each kinase and a test compound concentration of 1 μM.

The target of data set [5] is GSK3B (GSK3 beta) (Homo sapiens, UniProt P49841). The data set can be described thus: Kinome selectivity screen GSK3B. It is filed as biochemical. The following applies: 1 μM compound. On the procedure:
as §1, §2

Data set [6] deals with IRAK4 (Homo sapiens, UniProt Q9NWZ3). The data set can be described thus: Kinome selectivity screen IRAK4. It is filed as biochemical. The settings on record: 1 μM compound. On the procedure: as §1, §2
Sequence of IRAK4 (Q9NWZ3 whole entry): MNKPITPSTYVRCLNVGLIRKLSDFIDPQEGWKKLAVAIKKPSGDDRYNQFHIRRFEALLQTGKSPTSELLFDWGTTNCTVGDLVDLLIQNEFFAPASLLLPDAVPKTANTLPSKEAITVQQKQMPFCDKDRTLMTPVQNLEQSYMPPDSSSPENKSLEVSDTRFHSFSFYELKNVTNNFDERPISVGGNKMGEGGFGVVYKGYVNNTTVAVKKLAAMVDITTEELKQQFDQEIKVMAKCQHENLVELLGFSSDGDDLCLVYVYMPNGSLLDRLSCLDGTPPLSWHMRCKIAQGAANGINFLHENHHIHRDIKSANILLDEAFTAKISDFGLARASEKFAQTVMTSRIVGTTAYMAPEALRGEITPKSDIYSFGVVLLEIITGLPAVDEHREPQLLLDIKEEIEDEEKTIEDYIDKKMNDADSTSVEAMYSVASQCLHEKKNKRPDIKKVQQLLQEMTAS
Data set [7] addresses MAPK14 (p38 alpha) (Homo sapiens, UniProt Q16539). The data set can be described thus: Kinome selectivity screen MAPK14. The format is biochemical. The following applies: 1 μM compound. On the procedure:
as §1, §2

For data set [8], the target named is PIM1 (Homo sapiens, UniProt P11309). The data set can be described thus: Kinome selectivity screen PIM1. The format is biochemical. The settings on record: 1 μM compound. On the procedure: as §1, §2
Sequence of PIM1 (P11309 whole entry): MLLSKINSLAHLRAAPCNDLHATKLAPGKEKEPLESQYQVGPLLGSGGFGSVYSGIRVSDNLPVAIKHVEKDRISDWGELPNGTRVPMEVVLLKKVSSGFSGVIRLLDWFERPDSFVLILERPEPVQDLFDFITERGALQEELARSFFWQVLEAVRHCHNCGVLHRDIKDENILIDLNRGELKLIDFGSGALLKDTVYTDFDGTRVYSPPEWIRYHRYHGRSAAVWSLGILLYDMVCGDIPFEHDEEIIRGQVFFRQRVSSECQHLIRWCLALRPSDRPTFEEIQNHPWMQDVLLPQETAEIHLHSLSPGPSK
Data set [9] has as its target PLK1 (Homo sapiens, UniProt P53350). Kind of data set: Kinome selectivity screen PLK1. The format is biochemical. The settings on record: 1 μM compound. The procedure: as §1, §2
Data set [10] addresses ROCK2 (Homo sapiens, UniProt O75116). Kind of data set: Kinome selectivity screen ROCK2. The following applies: 1 μM compound. It is filed as biochemical. The procedure:
as §1, §2

The target of data set [11] is STK22D (TSSK1) (Homo sapiens, UniProt Q9BXA7). Kind of data set: Kinome selectivity screen STK22D. The following applies: 1 μM compound. The format is biochemical. The procedure:
as §1, §2

Sequence of PLK1 (P53350 whole entry): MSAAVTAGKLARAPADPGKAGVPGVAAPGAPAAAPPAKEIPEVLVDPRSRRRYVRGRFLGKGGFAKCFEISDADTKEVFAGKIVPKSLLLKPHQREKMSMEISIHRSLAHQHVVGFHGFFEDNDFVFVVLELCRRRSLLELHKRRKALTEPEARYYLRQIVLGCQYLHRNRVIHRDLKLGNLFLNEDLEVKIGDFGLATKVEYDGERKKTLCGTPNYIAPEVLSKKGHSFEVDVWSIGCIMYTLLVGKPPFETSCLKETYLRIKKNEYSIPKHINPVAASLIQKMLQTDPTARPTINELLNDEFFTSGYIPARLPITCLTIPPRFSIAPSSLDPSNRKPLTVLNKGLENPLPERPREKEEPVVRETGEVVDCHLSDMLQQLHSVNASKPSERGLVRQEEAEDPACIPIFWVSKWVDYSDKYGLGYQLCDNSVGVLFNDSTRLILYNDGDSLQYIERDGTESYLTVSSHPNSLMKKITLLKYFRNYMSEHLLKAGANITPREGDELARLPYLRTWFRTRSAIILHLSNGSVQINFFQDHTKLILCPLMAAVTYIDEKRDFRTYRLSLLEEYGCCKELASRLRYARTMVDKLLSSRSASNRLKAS
Sequence of GSK3B (GSK3 beta) (P49841 whole entry): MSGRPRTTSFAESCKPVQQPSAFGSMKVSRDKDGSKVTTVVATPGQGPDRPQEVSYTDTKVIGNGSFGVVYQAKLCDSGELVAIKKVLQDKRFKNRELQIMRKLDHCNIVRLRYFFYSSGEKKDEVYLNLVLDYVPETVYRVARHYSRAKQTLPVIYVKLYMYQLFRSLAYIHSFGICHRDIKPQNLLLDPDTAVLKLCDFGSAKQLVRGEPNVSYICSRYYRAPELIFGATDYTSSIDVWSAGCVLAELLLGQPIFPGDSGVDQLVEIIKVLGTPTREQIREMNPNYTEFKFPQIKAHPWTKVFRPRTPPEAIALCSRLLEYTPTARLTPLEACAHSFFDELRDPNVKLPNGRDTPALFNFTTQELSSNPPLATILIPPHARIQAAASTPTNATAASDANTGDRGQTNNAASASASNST
Sequence of ROCK2 (O75116 whole entry): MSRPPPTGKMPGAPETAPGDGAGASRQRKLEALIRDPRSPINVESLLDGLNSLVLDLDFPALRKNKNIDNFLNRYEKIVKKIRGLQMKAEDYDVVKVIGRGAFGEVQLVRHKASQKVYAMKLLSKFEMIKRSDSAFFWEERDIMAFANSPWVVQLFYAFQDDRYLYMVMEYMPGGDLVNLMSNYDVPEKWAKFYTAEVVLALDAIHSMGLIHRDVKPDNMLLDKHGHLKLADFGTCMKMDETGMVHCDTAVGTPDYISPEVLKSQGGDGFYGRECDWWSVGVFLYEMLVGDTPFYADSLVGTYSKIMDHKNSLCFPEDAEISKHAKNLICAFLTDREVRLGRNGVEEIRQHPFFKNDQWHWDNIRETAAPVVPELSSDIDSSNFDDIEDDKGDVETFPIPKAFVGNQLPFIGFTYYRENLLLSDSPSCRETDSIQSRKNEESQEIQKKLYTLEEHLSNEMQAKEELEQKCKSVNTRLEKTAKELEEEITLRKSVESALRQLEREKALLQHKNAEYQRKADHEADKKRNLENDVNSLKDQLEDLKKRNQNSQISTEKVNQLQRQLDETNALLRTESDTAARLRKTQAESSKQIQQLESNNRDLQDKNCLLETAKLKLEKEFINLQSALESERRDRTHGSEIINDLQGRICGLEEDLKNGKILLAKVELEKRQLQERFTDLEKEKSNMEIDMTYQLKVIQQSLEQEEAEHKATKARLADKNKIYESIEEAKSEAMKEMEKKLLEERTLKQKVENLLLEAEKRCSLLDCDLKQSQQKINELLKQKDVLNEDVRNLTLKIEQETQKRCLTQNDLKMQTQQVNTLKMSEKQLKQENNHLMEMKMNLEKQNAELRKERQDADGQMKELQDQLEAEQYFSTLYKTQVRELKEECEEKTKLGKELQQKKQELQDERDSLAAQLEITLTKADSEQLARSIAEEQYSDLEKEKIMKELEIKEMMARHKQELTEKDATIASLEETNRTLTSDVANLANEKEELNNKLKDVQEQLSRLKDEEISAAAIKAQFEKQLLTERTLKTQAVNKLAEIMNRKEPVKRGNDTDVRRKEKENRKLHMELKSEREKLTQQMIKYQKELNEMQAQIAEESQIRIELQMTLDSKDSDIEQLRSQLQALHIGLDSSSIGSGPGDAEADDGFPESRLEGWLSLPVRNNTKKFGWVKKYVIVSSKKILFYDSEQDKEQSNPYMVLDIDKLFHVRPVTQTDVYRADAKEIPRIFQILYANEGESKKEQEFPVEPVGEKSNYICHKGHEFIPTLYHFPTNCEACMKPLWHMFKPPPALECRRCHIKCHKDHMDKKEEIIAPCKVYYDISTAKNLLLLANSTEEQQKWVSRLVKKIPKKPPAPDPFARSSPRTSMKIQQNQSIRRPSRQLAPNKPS
Sequence of MAPK14 (p38 alpha) (Q16539 whole entry): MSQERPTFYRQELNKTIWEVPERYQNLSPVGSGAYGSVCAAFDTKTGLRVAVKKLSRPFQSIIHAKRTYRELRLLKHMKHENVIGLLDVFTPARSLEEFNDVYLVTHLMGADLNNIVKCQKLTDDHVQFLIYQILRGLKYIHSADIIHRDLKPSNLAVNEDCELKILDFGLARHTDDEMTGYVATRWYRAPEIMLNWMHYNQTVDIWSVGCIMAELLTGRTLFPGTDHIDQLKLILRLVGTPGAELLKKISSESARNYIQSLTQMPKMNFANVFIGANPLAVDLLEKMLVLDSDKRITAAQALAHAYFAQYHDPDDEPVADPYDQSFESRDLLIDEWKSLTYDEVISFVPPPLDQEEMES
Sequence of STK22D (TSSK1) (Q9BXA7 whole entry): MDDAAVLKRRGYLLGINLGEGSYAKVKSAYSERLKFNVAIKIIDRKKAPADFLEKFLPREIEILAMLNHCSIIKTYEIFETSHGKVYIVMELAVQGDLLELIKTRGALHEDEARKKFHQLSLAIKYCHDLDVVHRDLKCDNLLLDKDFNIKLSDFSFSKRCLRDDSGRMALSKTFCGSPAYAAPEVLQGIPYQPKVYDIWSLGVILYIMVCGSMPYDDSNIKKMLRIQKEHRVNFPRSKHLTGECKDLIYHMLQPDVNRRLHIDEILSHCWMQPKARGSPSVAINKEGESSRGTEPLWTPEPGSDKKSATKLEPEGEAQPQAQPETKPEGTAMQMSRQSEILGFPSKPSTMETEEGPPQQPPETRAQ
Sequence of EPHB1 (P54762 18-984): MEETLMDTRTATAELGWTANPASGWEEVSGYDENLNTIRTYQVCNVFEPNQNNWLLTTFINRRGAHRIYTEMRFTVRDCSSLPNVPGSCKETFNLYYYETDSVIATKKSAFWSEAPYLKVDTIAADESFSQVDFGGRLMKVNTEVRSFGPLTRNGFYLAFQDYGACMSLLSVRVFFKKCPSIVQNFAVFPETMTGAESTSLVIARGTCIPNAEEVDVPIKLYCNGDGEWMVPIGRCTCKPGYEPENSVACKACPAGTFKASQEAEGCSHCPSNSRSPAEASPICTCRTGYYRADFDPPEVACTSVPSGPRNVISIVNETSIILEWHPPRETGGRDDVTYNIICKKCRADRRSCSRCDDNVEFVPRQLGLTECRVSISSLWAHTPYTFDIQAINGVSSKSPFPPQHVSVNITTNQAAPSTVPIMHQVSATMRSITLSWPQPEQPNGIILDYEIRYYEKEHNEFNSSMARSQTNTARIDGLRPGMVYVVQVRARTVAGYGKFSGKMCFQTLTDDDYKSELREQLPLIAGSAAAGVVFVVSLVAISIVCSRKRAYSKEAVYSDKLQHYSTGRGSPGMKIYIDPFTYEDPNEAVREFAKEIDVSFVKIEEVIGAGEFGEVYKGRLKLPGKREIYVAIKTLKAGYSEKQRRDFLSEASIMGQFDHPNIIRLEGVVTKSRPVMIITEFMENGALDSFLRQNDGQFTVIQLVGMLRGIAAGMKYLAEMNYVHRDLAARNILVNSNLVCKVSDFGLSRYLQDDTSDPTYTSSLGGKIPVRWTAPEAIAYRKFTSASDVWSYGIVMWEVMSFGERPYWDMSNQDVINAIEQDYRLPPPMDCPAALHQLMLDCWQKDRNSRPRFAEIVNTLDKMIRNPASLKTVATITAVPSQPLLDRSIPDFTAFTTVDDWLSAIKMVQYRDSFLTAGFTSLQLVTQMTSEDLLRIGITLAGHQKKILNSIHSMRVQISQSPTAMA

For the compound `C=CC(=O)Nc1cccc(-c2n[nH]c3c2CCCC3)c1` [GO4], the half-maximal inhibitory concentration (IC50) in data set [1] (read-out: MKK7 IC50 in vitro) stood at 11 nM; in [2], 18200 nM. The EC50 in data set [2] (ICW, 2 h pre-incubation) was > 10000 nM. For the same compound, in [3], the “% remaining @ 40 min” value is on record as 0%. For the same compound, in [3], the half-life was < 5 min.
Consider `C=CC(=O)Nc1cccc(-c2n[nH]c3ccccc23)c1` [GO32], for which, in data set [1] (MKK7 nanomolar, Aurora kinase micromolar), the “potency towards MKK7 compared with Aurora kinase” value is “at least two orders of magnitude”. The IC50 is 9 nM in [1] (read-out: MKK7 IC50), 6 nM in data set [1] (read-out: MKK7 IC50 in vitro) and 5150 nM in data set [2]. In data set [3], the “% remaining @ 40 min” value is reported as 0%. Also, in [3], the half-life was < 5 min. Besides, the inhibition at 1 µM is -4% in [4]; -10% in data set [5]; 15% in [6]; 9% in data set [7]; 1% in [8]; 1% in data set [9]. For the same compound, the inhibition at 1 µM was -2% in data set [10] and 0% in data set [11].
Turning to `C=CC(=O)Nc1cccc(-c2n[nH]c3cc(C)ccc23)c1` [GO80], the IC50 was 5 nM in data set [1] (read-out: MKK7 IC50 in vitro) and 4050 nM in data set [2]. Moreover, the “% remaining @ 40 min” value in [3] was 0%. Further, the half-life in [3] was < 5 min. Further, the inhibition at 1 µM was -2% in data set [4]; -8% in data set [5]; 12% in [6]; 16% in [7]; 5% in [8]; 3% in data set [9]. Besides, the inhibition at 1 µM is -4% in data set [10] and -1% in [11].
